From patent publication US20030152637A1, “Local anesthetic, and method of use” (priority 2001, published 2003)

What was measured:
[1] = Moore et al. 1976; cited from earlier work
[2] = In-vitro release of bupivacaine, USP Apparatus 2 Paddle Method, pH 3.0; assay type: physicochemical
Method: The in-vitro dissolution range described above may be determined by subjecting the local anesthetic formulation to in-vitro conditions specified by the USP II Paddle Method, 100 RPM, 37 degrees Celsius, pH 3.0 in 900 ml of 10 mM sodium phosphate buffer.
(§1) The in-vitro release of bupivacaine from the microcapsules of Examples 1 and 2 was examined. Dissolution was performed by using USP Apparatus 2 Paddle Method <711>at 100 rpm at 37° C. A 80 mg±3 mg of sample, irrespective of microcapsules formulation, was employed per vessel containing 900 mL of 10 mM Sodium Phosphate Buffer, pH 3.0. The samples (clear solution) were withdrawn at preset time intervals and analyzed for bupivacaine base by HPLC. The HPLC conditions are:
as §1, with “the microspheres” for “the microcapsules”, “Examples 2 (batches 1-4), 2A, 3,” for “Examples 1”, “and 4” for “and 2”, “Method at” for “Method <711>at”, “of microsphere” for “of microcapsules”, “HPLC.” for “HPLC. The HPLC conditions are:”
The in-vitro release of bupivacaine from the microspheres of Examples 2B was examined. Dissolution was performed by using USP Apparatus 2 Paddle Method <711> at 100 rpm at 37° C. A 80 mg±3 mg of sample, irrespective of microsphere formulation, was employed per vessel containing 900 mL of 10 mM Sodium Phosphate Buffer, pH 3.0. The samples (clear solution) were withdrawn at preset time intervals and analyzed for bupivacaine base by HPLC. The following 24 hour dissolution release rates in Table 7B are preferred release rates which were based on batches made in accordance with the formulation of Example 2B (10 Kg scale batches).

In Vitro Release of Bupivacaine (Cumulative Release %) ([2]; 0.5 h): 96.5%
In Vitro Release of Bupivacaine (Cumulative Release %) ([2]; 1 h): 97.09%
In Vitro Release of Bupivacaine (Cumulative Release %) ([2]; 2 h): 97.035%
In Vitro Release of Bupivacaine (Cumulative Release %) ([2]; 3 h): 97.275%
In Vitro Release of Bupivacaine (Cumulative Release %) ([2]; 4 h): 97.665%
Compound: CCCCN1CCCCC1C(=O)Nc1c(C)cccc1C (stereo not drawn) [Bupivacaine base]
plasma bupivacaine level at which systemic toxic reactions are believed to occur [1]: 4000 ng/mL
